Results as given in patent US9682970B2, “Fluorescent compounds and uses thereof” (BIOTIUM, INC., priority 2012, dated 2017).

Assays:
calf thymus dsDNA = assay: Absorption and emission spectra of nucleic acid binding dyes; format: physicochemical
Procedure: All absorption spectra were measured on a Beckman Coulter DU-800 spectrophotometer at room temperature. All fluorescence spectra were measured on a Hitachi F-4500 fluorescence spectrophotometer at room temperature. To record the complete emission profiles, excitation wavelengths were set 30 nm shorter than the absorption maxima of the dyes. The dsDNA used was calf thymus dsDNA from Sigma. When dsDNA was present in the dye solutions, spectra were recorded after the dyes had been incubated with the DNA for at least 10 minutes.

[1] = tested on: HeLa cells fixed in 4% paraformaldehyde; assay: Staining of fixed cells with Compound 36; format: cell-based; conditions: 10 uM in blocking buffer, 10 minutes, Cy3 channel
Procedure: The high photostability and relatively long emission wavelength (˜565 nm) make the dye a useful cell counterstain. HeLa cells were plated on an 8-chambered Lab-Tek cover glass at 4×10^4 cells per chamber and cultured overnight. The day after plating, the cells were fixed in 4% paraformaldehyde/PBS for 15 minutes at room temperature. The cells were rinsed in PBS and blocked in PBS containing 5% normal goat serum and 0.1% Triton X-100 for 30 minutes at room temperature. Cells were stained with 10 uM Dye 36 in blocking buffer for 10 minutes at room temperature and imaged in the same solution by confocal microscopy in the Cy3 channel of a Zeiss LSM 700 confocal microscope.

[2] = Photostability of the dye; format: physicochemical
calf thymus DNA = assay: DNA quantitation in solution (fluorescence linearity)
Procedure: compounds 5, 7 and related compounds according to the invention can be used to quantitate double-stranded DNA in solution with high sensitivity and accuracy over a wide range of DNA concentrations, as shown in FIGS. 4 and 5. […] At […] dye concentration, compound 5 fluorescence is linear from 0.04-250 ng (FIG. 5).
The data shown in FIG. 4A was obtained under the following conditions: compound 7 at 0.5 μM was prepared in TE buffer (10 mM Tris, 1 mM EDTA, pH 7.5), and pipetted into wells of black 96-well plates at 200 μL per well. Two-fold dilutions of calf thymus DNA were prepared in TE buffer starting at 0.2 ng/uL, and 10 μL of each DNA dilution was added per 96 well to obtain a standard curve of 2 ng to 0.015 ng per well. The plates were incubated for five minutes at room temperature, protected from light, then read at 468 nm excitation and 507 nm emission using a Molecular Devices Gemini XS fluorescent plate reader. Triplicate samples were averaged and background fluorescence (no DNA) was subtracted. Fluorescence values were plotted against the DNA amount (ng/well). […] The R^2 values for linear regression are shown next to each curve. The data shown in FIG. 4B were obtained under similar condition except that compound 5 at 1 uM was used and serial DNA dilutions were from 250 ng to 0.04 ng.

adherent HeLa cells = assay: Cell number quantitation in adherent cell cultures; format: cell-based; conditions: 10 uM, 30 minutes at 37° C., 50,000 to 100 cells per well
Procedure: The data in FIG. 7B was obtained under the following conditions: adherent HeLa cells were seeded at densities ranging between 50,000 and 100 cells per well in optical bottom black 96 well tissue culture plates and allowed to adhere overnight at 37° C. in a 5% CO2 incubator. On the day after seeding, the cells were washed with HBSS and incubated in HBSS containing Dye 5 or Dye 7 at 10 uM for 30 minutes at 37° C. Fluorescence was read at 468/507 nm in a Molecular Devices Gemini XS fluorescent plate reader. Triplicate samples were averaged and background fluorescence (no cells) was subtracted. Fluorescence values were plotted against the DNA amount (ng/well). The R^2 values for linear regression are shown next to each curve. For comparison, cell numbers were quantitated using the CyQUANT NF Cell Proliferation Assay Kit (Life Technologies according to the kit manual.

[3] = tested on: HeLa cells formaldehyde-fixed, permeabilized; assay: Staining of fixed cells; format: cell-based; conditions: 10 μM in PBS/5% BSA, 30 minutes
Procedure: (§1) The images in the top panel of FIG. 6 were obtained under the following conditions: live HeLa cells were incubated with 10 uM compound 7, compound 8, or Dye 5 for 30 minutes at 37 C in a CO2 incubator. The images in the bottom panel of FIG. 6 were obtained under the following conditions: HeLa cells were formaldehyde-fixed, permeabilized, and blocked according to standard immunofluorescence staining protocols. Cell were stained with 10 μM compound 7, 8 or 5 in PBS/5% BSA for 30 minutes, then washed with PBS buffer and imaged. Live and fixed cells were imaged using an Olympus epifluorescence microscope equipped with a FITC filter set, Retiga 2000R Fast 1394 camera (QImaging), and Image-Pro Express software (Media Cybernetics).

live HeLa cells = assay: Staining of live cells; format: cell-based; conditions: 10 uM, 30 minutes at 37 C
Procedure: as §1

Jurkat cells = assay: Cell number quantitation in cell suspensions; format: cell-based; conditions: 10 uM final dye, 30 minutes at 37° C., 440,000 to 860 cells per well
Procedure: The data in FIG. 7A were obtained under the following conditions: compound 5 or 7 at 20 uM in Hank's Balanced Salt Solution (HBSS) was pipetted into optical bottom black 96 well tissue culture plates at 50 μL per well. Two-fold serial dilutions of Jurkat cells in suspension culture were prepared in Hank's Balanced Salt Solution (HBSS) and pipetted into black 96 well plates at 50 μL per well to obtain a dilution curve of 440,000 to 860 cells per well, and a final dye concentration of 10 uM. Plates were incubated for 30 minutes at 37° C. in a 5% CO2 incubator, and fluorescence was read at 468/507 nm in a Molecular Devices Gemini XS fluorescent plate reader. Triplicate samples were averaged and background fluorescence (no cells) was subtracted. Fluorescence values were plotted against the DNA amount (ng/well). The R^2 values for linear regression are shown next to each curve. For comparison, cell numbers were quantitated using the CyQUANT NF Cell Proliferation Assay Kit (Life Technologies) according to the kit manual.

[4] = tested on: linearized GAPDH-containing plasmid DNA; assay: Real-time PCR with plasmid DNA; conditions: 0.34 uM dye, 5×10^5 copies plasmid
Procedure: Compound 7 and related dyes can be used in real time PCR experiments to monitor amplification of target plasmid DNA. In FIG. 8, 5×10^5 copies of linearized GAPDH-containing plasmid DNA or water (non-template controls, NTC) were added to PCR reaction mixes containing 0.34 uM of either SYBR Green I (lines with solid diamonds (DNA) or “x's” (water)) or Compound 7 (lines with triangles (DNA) or circles (water)) and real time PCR was performed. […] The data in FIG. 8 were collected under the following conditions: PCR reactions consisted of a final concentration of 50 mM Tris-HCl (pH 8.6), 3 mM MgCl2, 50 μg/ml non-acetylated BSA (Sigma), 200 μM dNTPs (New England BioLabs), 500 nM GAPDH Forward primer ([NT]), 500 nM GAPDH Reverse primer ([NT]) (Integrated DNA Technologies), 1 U Hot-Start Cheetah Taq (Biotium, Inc.) and either 0.34 uM SYBR Green I (Life Technologies) or 0.34 uM compound 7. One microliter of 5×10^5 copies linearized pCMV-SPORT6 GAPDH plasmid (Open Biosystems) was added to each 20 ul reaction. Real time PCR was performed using the RotorGeneQ with the following cycling conditions: 95° C. for 2 minutes, followed by 45 cycles of 95° C. for 5 seconds and 60° C. for 30 seconds, with data acquisition during the elongation stage on the green channel.

[5] = tested on: GAPDH cDNA from Jurkat cell purified mRNA; assay: Real-time PCR with cDNA; conditions: 0.34 uM dye
Procedure: Compound 7 and related dyes can be used in real time PCR experiments to monitor amplification of target cDNA. In FIG. 9, serial dilutions of total cDNA generated from Jurkat cell purified mRNA were added to PCR reaction mixes containing 0.34 uM compound 7 and real time PCR was performed.
The data in FIG. 9 were collected under the following conditions: mRNA was purified from 4×10^6 Jurkat cells using Qiagen's RNeasy Kit and cDNA was then generated using oligo-dT primers and the ProtoScript First Strand cDNA Synthesis Kit (New England BioLabs). Serial 1:2 dilutions of the cDNA in water were prepared and added to PCR reactions consisting of a final concentration of 25 mM Tris-HCl (pH 8.6), 5 mM KCl, 10 mM (NH4)2SO4, 2 mM MgCl2, 2.5% glycerol, 5% DMSO, 200 uM dNTPs (New England BioLabs), 0.01% Tween-20, non-acetylated BSA (Sigma), 500 nM GAPDH Forward primer (5′-GAAGGTGAAGGTCGGAGTC-3′), 500 nM GAPDH Reverse primer (5′-[…]-3′) (Integrated DNA Technologies), 1 U Taq polymerase (Syzygy) modified using a HotStart Polymerase Modification Kit (Biotium, Inc.) and 0.34 uM compound 7. One microliter cDNA was added to each 20 ul reaction. Real time PCR was performed using the RotorGeneQ as described for FIG. 8.

[6] = tested on: CD3e PCR products (WT or single base pair change); assay: High-resolution melt curve analysis (HRM); set-up: species or system human; conditions: compound 7 (0.07 μM) spiked into EvaGreen Master Mix
Text: The addition of a small amount of compound 7 to existing real time HRM Master Mixes can improve the resolution of the melting curves leading to higher confidence calls by HRM software. FIGS. 12 and 13 show normalized graphs (12A, 13A) and difference graphs (12B, 13B) from the HRM analysis of PCR products generated from template plasmids containing either a WT copy of CD3e or a version with a single base pair change. The genotype calls of the HRM software are also shown (12C, 13C).
The data in FIGS. 12 and 13 were collected under the following conditions: PCR reactions were performed as in FIG. 10 with 500 nM CD3e Forward primer (5′-[…]-3′) and […] CD3e Reverse primer (5′-[…]-3′). To each reaction, one microliter of approximately 1×10^6 copies/μl pME-human CD3e-6× His-HA was added, either with a wild type (WT) sequence or with a single nucleotide change (C to T) at base 54 from the start codon of the CD3e sequence. HRM analysis was performed on the RotorGeneQ immediately following template amplification from a temperature range of 76.5-86.5° C. ramping 0.1° C. every two seconds after initial 90 second pre-melt conditioning.

[7] = 0.5 μM dye concentration, DNA 0.015-2 ng
[8] = in the presence of dsDNA, 10 mM pH 7.4 Tris buffer, room temperature

**Q.** For `CC(=N)NCc1ccc2c(c1)C(C)(C)C(=CC(C)=CC1=[N+](C)c3ccc(CNC(C)=N)cc3C1(C)C)N2C` [Compound 36], which emission wavelength (calf thymus dsDNA) is on record?
**A.** ~565 nm

**Q.** What about the “staining of nuclei of fixed cells” value [1] of the same compound?
**A.** good specificity

**Q.** And the photostability [2]?
**A.** high

**Q.** With `CN(C)CCCN(CCCN(C)C)c1cc(C=C2Sc3ccccc3N2C)c2ccccc2[n+]1-c1ccccc1` [PicoGreen, reference compound] as the compound, how does the “linearity of fluorescence at lower DNA concentrations” value (calf thymus DNA; [7]) read?
**A.** lower than that of compound 7

**Q.** For `CCCN(CCCNC1=CC(=Cc2sc3ccccc3[n+]2C)c2ccccc2N1c1ccccc1)C(=N)N` [compound 5], which “quantitation of cell numbers in adherent cell cultures” value (adherent HeLa cells) is on record?
**A.** can be used to quantitate cell numbers

**Q.** What about the “fluorescence upon DNA binding” value (calf thymus dsDNA; 10 mM pH 7.4 Tris, with DNA) of the same compound?
**A.** highly fluorescent

**Q.** What about the absorption maximum (calf thymus dsDNA; [8]) of the same compound?
**A.** ~470 nm

**Q.** And the emission maximum (calf thymus dsDNA; [8])?
**A.** ~520 nm

**Q.** What about the “staining of nuclei of fixed cells” value [3] of the same compound?
**A.** can specifically stain the nuclei

**Q.** What about the “staining of nuclei of live cells” value (live HeLa cells) of the same compound?
**A.** can specifically stain the nuclei

**Q.** What about the “DNA amount range of linearity of fluorescence” value (calf thymus DNA; 1 uM concentration (FIG. 4B)) of the same compound?
**A.** 0.05 to 250 ng

**Q.** And the “DNA amount range over which fluorescence is linear” value (calf thymus DNA; 1 mM dye concentration)?
**A.** 0.04 to 250 ng

**Q.** And the “quantitation of cell numbers in cell suspensions” value (Jurkat cells)?
**A.** can be used to quantitate cell numbers

**Q.** Which “quantitation of cell numbers in adherent cell cultures” value (adherent HeLa cells) does the source give for `CCCN(CCCNC1=CC(=Cc2sc3cccc4c3[n+]2CCC4)c2ccccc2N1c1ccccc1)C1=NCCN1` [compound 7] here?
**A.** can be used to quantitate cell numbers

**Q.** What about the “Ct value (in words)” value [4] of the same compound?
**A.** early

**Q.** And the “amplification of target amplicon” value [4]?
**A.** efficient amplification

**Q.** What about the endpoint fluorescent signal [4] of the same compound?
**A.** high

**Q.** And the “amplification of target amplicon from serial cDNA dilutions” value [5]?
**A.** efficient amplification

**Q.** And the “staining of nuclei of fixed cells” value [3]?
**A.** can specifically stain the nuclei

**Q.** And the “staining of nuclei of live cells” value (live HeLa cells)?
**A.** can specifically stain the nuclei

**Q.** What about the “sensitivity (slope of the titration curve) compared to PicoGreen” value (calf thymus DNA; [7]) of the same compound?
**A.** more sensitive than PicoGreen

**Q.** And the “effect on HRM analysis resolution” value [6]?
**A.** improves HRM analysis resolution

**Q.** And the “quantitation of cell numbers in cell suspensions” value (Jurkat cells)?
**A.** can be used to quantitate cell numbers

**Q.** For `CCCN(CCCNC1=CC(=Cc2sc3cccc4c3[n+]2CCC4)c2ccccc2N1c1ccccc1)C(=N)N` [compound 8], which “staining of nuclei of fixed cells” value [3] is on record?
**A.** can specifically stain the nuclei

**Q.** And the “staining of nuclei of live cells” value (live HeLa cells)?
**A.** can specifically stain the nuclei
